For one assay, the target named is T1, TrkB (Homo sapiens, UniProt Q16620).
T1 construct: purchased Upstate 14-507M
Kind of assay: Trk B Fluorescence Polarization Kinase Assay. In kind it is biochemical. To be noted: FP assay, 150 uM ATP, 50 nM TrkB; uncertainty ±10%. The procedure: The compounds of the present invention are also specific inhibitors of TrkB. Selection of preferred compounds of Formula I for use as TrkB inhibitors was performed in the following manner. The TrkB assay utilized the fluorescein-labeled phosphopeptide and the anti-phosphotyrosine antibody included in the Panvera Phospho-Tyrosine Kinase Kit (Green) supplied by Invitrogen. When TrkB phosphorylated poly Glu4Tyr, the fluorescein-labeled phosphopeptide was displaced from the anti-phosphotyrosine antibody by the phosphorylated poly Glu4Tyr, thus decreasing the FP value. The TrkB kinase reaction was incubated at room temperature for 30 minutes under the following conditions: 50 nM TrkB (Upstate, catalog # 14-507M), 20 ug/mL poly Glu4Tyr, 150 uM ATP, 5 mM MgCl2, 1% compound in DMSO. The kinase reaction was stopped with the addition of EDTA. The fluorescein-labeled phosphopeptide and the anti-phosphotyrosine antibody were added and incubated for 30 minutes at room temperature. Data points were an average of triplicate samples. Inhibition and IC50 data analysis were done with GraphPad Prism using a non-linear regression fit with a multiparamater, sigmoidal dose-response (variable slope) equation.

The target of assay [1] is T2, isolated kinase domain of the human c-kit receptor (Homo sapiens, UniProt P10721).
T2 construct: isolated kinase domain of the human c-kit receptor; purchased ProQinase lot SP005
Kind of assay: c-Kit Fluorescence Polarization Kinase Assay. In kind it is biochemical. The following applies: FP assay, 50 uM ATP, 1 nM c-kit; uncertainty ±10%. The procedure:
The compounds of the present invention are also specific inhibitors of c-Kit. Selection of preferred compounds of Formula I for use as c-Kit inhibitors was performed in the following manner using an in vitro kinase assay to measure inhibition of the isolated kinase domain of the human c-kit receptor in a fluorescence polarization (FP) protocol. The c-kit assay utilized the fluorescein-labeled phosphopeptide and the anti-phosphotyrosine antibody included in the Panvera Phospho-Tyrosine Kinase Kit (Green) supplied by Invitrogen. When c-kit phosphorylated the poly Glu4Tyr, the fluorescein-labeled phosphopeptide was displaced from the anti-phosphotyrosine antibody by the phosphorylated poly Glu4Tyr, thus decreasing the FP value. The c-kit kinase reaction was incubated at room temperature for 45 minutes under the following conditions: 1 nM c-kit (ProQinase, lot SP005), 100 ug/mL poly Glu4Tyr, 50 uM ATP, 5 mM MgCl2, 1 mM DTT, 0.01% Tween-20, 1% DMSO or compound in […], pH 7.5. The kinase reaction was stopped with the addition of EDTA. The fluorescein-labeled phosphopeptide and the anti-phosphotyrosine antibody were added and incubated for 30 minutes at room temperature and fluorescence polarization was read. Data points were an average of triplicate samples. […]
(In fluorescence polarisation assays a small probe gives low polarisation when free and higher when bound to something large.)

Assay [2] deals with T3, FLT ligand-induced wild-type FLT3 phosphorylation in Baf3 FLT3 cells (Homo sapiens, UniProt P36888).
T3 construct: host or cells: Baf3 (murine B cell lymphoma line)
T3 sequence (P36888 27-993): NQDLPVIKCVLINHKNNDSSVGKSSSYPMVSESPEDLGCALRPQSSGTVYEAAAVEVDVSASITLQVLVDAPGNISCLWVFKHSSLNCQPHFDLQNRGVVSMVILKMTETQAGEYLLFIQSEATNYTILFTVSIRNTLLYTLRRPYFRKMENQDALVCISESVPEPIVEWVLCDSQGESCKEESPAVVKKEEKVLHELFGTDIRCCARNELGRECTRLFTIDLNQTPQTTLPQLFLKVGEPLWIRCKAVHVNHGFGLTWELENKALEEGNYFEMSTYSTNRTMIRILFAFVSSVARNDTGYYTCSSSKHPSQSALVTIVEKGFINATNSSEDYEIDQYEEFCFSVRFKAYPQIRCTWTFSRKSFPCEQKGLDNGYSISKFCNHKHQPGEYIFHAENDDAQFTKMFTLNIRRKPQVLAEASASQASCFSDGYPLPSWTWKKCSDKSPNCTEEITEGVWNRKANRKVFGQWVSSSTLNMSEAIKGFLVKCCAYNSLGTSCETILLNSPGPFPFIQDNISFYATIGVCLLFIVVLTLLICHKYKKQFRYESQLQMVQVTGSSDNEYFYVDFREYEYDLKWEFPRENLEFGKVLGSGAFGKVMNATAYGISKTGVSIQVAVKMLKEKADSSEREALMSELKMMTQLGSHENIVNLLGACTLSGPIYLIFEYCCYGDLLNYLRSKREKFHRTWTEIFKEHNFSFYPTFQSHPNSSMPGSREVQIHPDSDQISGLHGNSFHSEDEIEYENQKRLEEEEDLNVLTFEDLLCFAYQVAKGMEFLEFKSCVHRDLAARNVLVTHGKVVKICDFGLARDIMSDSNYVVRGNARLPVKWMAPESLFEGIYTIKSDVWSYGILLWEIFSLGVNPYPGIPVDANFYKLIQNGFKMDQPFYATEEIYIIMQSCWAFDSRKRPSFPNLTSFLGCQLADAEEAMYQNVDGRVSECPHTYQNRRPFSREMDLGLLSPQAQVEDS
In words: Cell-Based FLT3 Receptor Elisa (Baf3 FLT3 cells). To be noted: 1 hour compound incubation, 100 ng/mL Flt ligand, uncertainty ±20%. The procedure: Specific cellular inhibition of FLT ligand-induced wild-type FLT3 phosphorylation was measured in the following manner: Baf3 FLT3 cells overexpressing the FLT3 receptor were obtained from Dr. Michael Heinrich (Oregon Health and Sciences University). The Baf3 FLT3 cell lines were created by stable transfection of parental Baf3 cells (a murine B cell lymphoma line dependent on the cytokine IL-3 for growth) with wild-type FLT3. Cells were selected for their ability to grow in the absence of IL-3 and in the presence of FLT3 ligand.
Baf3 cells were maintained in RPMI 1640 with 10% FBS, penn/strep and 10 ng/ml FLT ligand at 37° C., 5% CO2. To measure direct inhibition of the wild-type FLT3 receptor activity and phosphorylation a sandwich ELISA method was developed similar to those developed for other RTKs (3,4). 200 μL of Baf3FLT3 cells (1×10^6/mL) were plated in 96 well dishes in RPMI 1640 with 0.5% serum and 0.01 ng/mL IL-3 for 16 hours prior to 1 hour compound or DMSO vehicle incubation. Cells were treated with 100 ng/mL Flt ligand (R&D Systems Cat# 308-FK) for 10 min. at 37° C. Cells were pelleted, washed and lysed in 100 ul lysis buffer (50 mM Hepes, 150 mM NaCl, 10% Glycerol, 1% Triton —X-100, 10 mM NaF, 1 mM EDTA, 1.5 mM MgCl2, 10 mM NaPyrophosphate) supplemented with phosphatase (Sigma Cat# P2850) and protease inhibitors (Sigma Cat #P8340). […]

Bounds are passed on as bounds.

What is called IC50 is the point on the concentration scale where inhibition reaches its midpoint.

T1 sequence (Q16620 32-822): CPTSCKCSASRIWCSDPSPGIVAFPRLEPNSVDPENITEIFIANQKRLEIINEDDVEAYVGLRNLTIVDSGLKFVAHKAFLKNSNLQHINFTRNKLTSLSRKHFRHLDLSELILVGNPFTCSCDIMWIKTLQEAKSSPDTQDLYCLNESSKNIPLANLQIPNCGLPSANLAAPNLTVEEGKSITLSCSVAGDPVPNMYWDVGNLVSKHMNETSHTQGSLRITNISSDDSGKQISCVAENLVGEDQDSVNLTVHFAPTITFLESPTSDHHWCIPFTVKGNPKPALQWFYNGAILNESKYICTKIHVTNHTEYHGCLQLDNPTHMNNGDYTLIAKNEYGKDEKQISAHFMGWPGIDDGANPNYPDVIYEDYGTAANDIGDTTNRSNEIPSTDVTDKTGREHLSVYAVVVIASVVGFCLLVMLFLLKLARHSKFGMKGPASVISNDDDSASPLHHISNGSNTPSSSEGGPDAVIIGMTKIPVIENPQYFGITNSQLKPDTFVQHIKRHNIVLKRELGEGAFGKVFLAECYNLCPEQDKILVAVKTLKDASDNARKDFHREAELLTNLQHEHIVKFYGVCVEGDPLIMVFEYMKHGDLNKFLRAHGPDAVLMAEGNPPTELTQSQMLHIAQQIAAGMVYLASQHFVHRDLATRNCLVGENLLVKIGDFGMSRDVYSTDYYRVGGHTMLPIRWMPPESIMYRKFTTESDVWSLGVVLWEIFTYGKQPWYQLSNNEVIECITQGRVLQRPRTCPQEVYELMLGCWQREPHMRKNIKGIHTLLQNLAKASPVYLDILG
T2 sequence (P10721 589-937 limits assumed): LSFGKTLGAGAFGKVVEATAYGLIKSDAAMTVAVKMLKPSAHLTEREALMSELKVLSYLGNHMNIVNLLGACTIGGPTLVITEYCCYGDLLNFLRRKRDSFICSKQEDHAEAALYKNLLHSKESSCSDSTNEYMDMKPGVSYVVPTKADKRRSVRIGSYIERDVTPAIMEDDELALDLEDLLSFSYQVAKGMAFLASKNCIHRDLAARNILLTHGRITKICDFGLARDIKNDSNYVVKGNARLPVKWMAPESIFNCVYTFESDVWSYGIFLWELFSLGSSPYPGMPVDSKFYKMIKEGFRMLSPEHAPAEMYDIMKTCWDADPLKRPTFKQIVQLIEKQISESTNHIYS

Molecule `CO/N=C/c1c(N)ncnc1N1CCC(OC(=O)Nc2ccc(OC(C)C)cc2)CC1` [Example 1, (4-Isopropoxy-phenyl)-carbamic acid 1-[6-amino-5-(methoxyimino-methyl)-pyrimidin-4-yl]-piperidin-4-yl ester] gave an IC50 on TrkB of 29.4 µM.

With `CCO/N=C/c1c(N)ncnc1N1CCC(OC(=O)Nc2ccc(OC(C)C)cc2)CC1` [Example 2, (4-Isopropoxy-phenyl)-carbamic acid 1-[6-amino-5-(ethoxyimino-methyl)-pyrimidin-4-yl]-piperidin-4-yl ester], the IC50 was over 42 µM at TrkB and 0.38 µM in assay [1]. Take `CC(C)Oc1ccc(NC(=O)OC2CCN(c3ncnc(N)c3/C=N/OCCN3CCOCC3)CC2)cc1` [Example 3, (4-Isopropoxy-phenyl)-carbamic acid 1-{6-amino-5-[(2-morpholin-4-yl-ethoxyimino)-methyl]-pyrimidin-4-yl}-piperidin-4-yl ester]: on TrkB, the IC50 was over 42 µM.

As to `CC(C)Oc1ccc(NC(=O)OC2CCN(c3ncnc(N)c3/C=N/OCCCN(C)C)CC2)cc1` [Example 4, (4-Isopropoxy-phenyl)-carbamic acid 1-{6-amino-5-[(3-dimethylamino-propoxyimino)-methyl]-pyrimidin-4-yl}-piperidin-4-yl ester], the IC50 was over 42 µM at TrkB and 0.345 µM in assay [2].

Take `CO/N=C/c1c(N)ncnc1N1CCC(OC(=O)Nc2ccc(C(C)C)cc2)CC1` [Example 5, (4-Isopropyl-phenyl)-carbamic acid 1-[6-amino-5-(methoxyimino-methyl)-pyrimidin-4-yl]-piperidin-4-yl ester]: the IC50 against TrkB is 23.9 µM.

As for `CO/N=C/c1c(N)ncnc1N1CCC(CC(=O)Nc2ccc(C(C)C)cc2)C1` (stereo not shown) [Example 6, 2-{1-[6-Amino-5-(methoxyimino-methyl)-pyrimidin-4-yl]-pyrrolidin-3-yl}-N-(4-isopropyl-phenyl)-acetamide], the IC50 against TrkB was found to be 0.3 µM; in assay [1], 0.016 µM. At TrkB, `CO/N=C/c1c(N)ncnc1N1CCC(CC(=O)Nc2ccc(C(C)C)cc2)CC1` [Example 7, 2-{1-[6-Amino-5-(methoxyimino-methyl)-pyrimidin-4-yl]-piperidin-4-yl}-N-(4-isopropyl-phenyl)-acetamide] returned an IC50 of 2.16 µM.

For `CO/N=C/c1c(N)ncnc1N1CCC(NC(=O)Nc2ccc(OC(C)C)cc2)C1` (stereo not shown) [Example 8, 1-{1-[6-Amino-5-(methoxyimino-methyl)-pyrimidin-4-yl]-pyrrolidin-3-yl}-3-(4-isopropoxy-phenyl)-urea], the IC50 against TrkB worked out at 14.2 µM. The same measure, in the same setting: then `CO/N=C/c1c(N)ncnc1N1CCC(NC(=O)Nc2ccc(N3CCCCC3)cc2)C1` (stereo not shown) [Example 9, 1-{1-[6-Amino-5-(methoxyimino-methyl)-pyrimidin-4-yl]-pyrrolidin-3-yl}-3-(4-piperidin-1-yl-phenyl)-urea], with 11.9 µM; and `CO/N=C/c1c(N)ncnc1N1CCC(NC(=O)Nc2ccc(N3CCOCC3)cc2)C1` (stereo not shown) [Example 10, 1-{1-[6-Amino-5-(methoxyimino-methyl)-pyrimidin-4-yl]-pyrrolidin-3-yl}-3-(4-morpholin-4-yl-phenyl)-urea], with 32.1 µM.

With `CO/N=C/c1c(N)ncnc1N1CCC(NC(=O)Nc2ccc(OC3CCC3)nc2)C1` (stereo not shown) [Example 11, 1-{1-[6-Amino-5-(methoxyimino-methyl)-pyrimidin-4-yl]-pyrrolidin-3-yl}-3-(6-cyclobutoxy-pyridin-3-yl)-urea], on TrkB, the IC50 is 4.2 µM. On the same count and under the same terms, in the case of `CO/N=C/c1c(N)ncnc1N1CCC(NC(=O)Nc2ccc(OC(C)C)cc2)CC1` [Example 12, 1-{1-[6-Amino-5-(methoxyimino-methyl)-pyrimidin-4-yl]-piperidin-4-yl}-3-(4-isopropoxy-phenyl)-urea] it was 8.5 µM. In the case of `CO/N=C/c1c(N)ncnc1N1CCC(NC(=O)Nc2ccc(N3CCCCC3)cc2)CC1` [Example 13, 1-{1-[6-Amino-5-(methoxyimino-methyl)-pyrimidin-4-yl]-piperidin-4-yl}-3-(4-piperidin-1-yl-phenyl)-urea], the midpoint of inhibition against TrkB, the IC50, lay at 2.9 µM. Same read-out and setting: then `CO/N=C/c1c(N)ncnc1N1CCC(NC(=O)Nc2ccc(N3CCOCC3)cc2)CC1` [Example 14, 1-{1-[6-Amino-5-(methoxyimino-methyl)-pyrimidin-4-yl]-piperidin-4-yl}-3-(4-morpholin-4-yl-phenyl)-urea], with 15.6 µM; and `CO/N=C/c1c(N)ncnc1N1CCC(NC(=O)Nc2ccc(OC3CCC3)nc2)CC1` [Example 15, 1-{1-[6-Amino-5-(methoxyimino-methyl)-pyrimidin-4-yl]-piperidin-4-yl}-3-(6-cyclobutoxy-pyridin-3-yl)-urea], with over 42 µM. Still for that read-out and setting: then `CO/N=C/c1c(N)ncnc1N1CCC(NC(=O)Cc2ccc(C(C)C)cc2)CC1` [Example 16, N-{1-[6-Amino-5-(methoxyimino-methyl)-pyrimidin-4-yl]-piperidin-4-yl}-2-(4-isopropyl-phenyl)-acetamide], with 7.4 µM.

The record behind these values is patent publication US20060281764A1, “AMINOPYRIMIDINES AS KINASE MODULATORS” (priority 2005, published 2006).
